ChEMBL document CHEMBL4382286, “Nongenotoxic 3-Nitroimidazo[1,2-a]pyridines Are NTR1 Substrates That Display Potent in Vitro Antileishmanial Activity” (ACS Med Chem Lett, 2019)

What was measured:
Leishmania donovani [1] = assay: Antileishmanial activity against promastigote stage of Leishmania donovani MHOM/IN/00/DEVI after 72 hrs by MTT assay; type: functional, organism-based
[2] = Cytotoxicity against human HepG2 cells after 72 hrs by MTT assay; type: cell-based
[3] = Selectivity index, ratio of CC50 for human HepG2 cells to IC50 for promastigote stage of Leishmania donovani MHOM/IN/00/DEVI; type: toxicity; details: read-out: Ratio CC50/IC50
[4] = Solubility of the compound in RPMI medium at 4 to 6 uM; type: physicochemical
Leishmania major [5] = assay: Antileishmanial activity against promastigote stage of Leishmania major MHOM/IL/81/Friedlin after 72 hrs by MTT assay; type: functional, organism-based
Leishmania major [6] = assay: Antileishmanial activity against intracellular amastigote stage of Leishmania major infected in human THP1 cells after 120 hrs by giemsa staining based microscopic analysis; type: functional, organism-based; details: THP-1, 120 h
Trypanosoma cruzi = assay: Antitrypanosomal activity against Trypanosoma cruzi MHOM/BR/78/Silvio cloneX10/7A epimastigotes measured after 4 days by resazurin dye based fluorescence assay; type: functional, organism-based; details: 96 h
Plasmodium falciparum = assay: Antiplasmodial activity against chloroquine/proguanil/pyrimethamine-resistant synchronized stage of Plasmodium falciparum K1 after 72 hrs by SYBR green1 staining based spectrophotometric method; type: functional, organism-based; details: K1, 72 h
Leishmania donovani [7] = assay: Antileishmanial activity against intracellular amastigote stage of Leishmania donovani infected in human THP1 cells after 120 hrs by giemsa staining based microscopic analysis; type: functional, organism-based; details: THP-1, 120 h
Leishmania infantum = assay: Antileishmanial activity against Leishmania infantum axenic amastigotes after 48 hrs by steady-glo luciferase reporter gene assay; type: functional, organism-based
Trichomonas vaginalis = assay: Antiprotozoal activity against Trichomonas vaginalis TVR87 measured after 48 hrs by trypan blue assay; type: functional, organism-based
[8] = tested on: Trypanosoma brucei brucei; assay: Antitrypanosomal activity against trypomastigote stage of Trypanosoma brucei brucei AnTat 1.9 assessed as decrease in parasite viability after 69 hrs by Alamar Blue assay; type: functional, organism-based; details: AnTat 1.9, 69 h
[9] = Cytotoxicity against human THP1 cells after 72 hrs by MTT assay; type: cell-based; details: THP-1 cells
[10] = Solubility of the compound in RPMI medium at >62.5 uM; type: physicochemical
[11] = Aqueous solubility of the compound at >12.5 uM; type: physicochemical; details: buffer
[12] = Mutagenicity in Salmonella typhimurium TA97a at 62.5 to 625 uM preincubated for 1 hr followed by addition of molten top agar and measured 48 hrs post dark incubation by Ames test; type: toxicity; details: salmonella enterica subsp. enterica serovar typhimurium
[13] = Mutagenicity in Salmonella typhimurium TA98 at 62.5 to 625 uM preincubated for 1 hr followed by addition of molten top agar and measured 48 hrs post dark incubation by Ames test; type: toxicity; details: salmonella enterica subsp. enterica serovar typhimurium
[14] = Mutagenicity in Salmonella typhimurium TA100 at 62.5 to 625 uM preincubated for 1 hr followed by addition of molten top agar and measured 48 hrs post dark incubation by Ames test; type: toxicity; details: salmonella enterica subsp. enterica serovar typhimurium
[15] = Mutagenicity in Salmonella typhimurium TA102 at 62.5 to 625 uM preincubated for 1 hr followed by addition of molten top agar and measured 48 hrs post dark incubation by Ames test; type: toxicity; details: salmonella enterica subsp. enterica serovar typhimurium
[16] = Mutagenicity in Salmonella typhimurium TA97a at 62.5 to 625 uM preincubated for 1 hr with S9 mix followed by addition of molten top agar and measured 48 hrs post dark incubation by Ames test; type: toxicity, subcellular; details: salmonella enterica subsp. enterica serovar typhimurium, s9, 48 h
[17] = Mutagenicity in Salmonella typhimurium TA98 at 62.5 to 625 uM preincubated for 1 hr with S9 mix followed by addition of molten top agar and measured 48 hrs post dark incubation by Ames test; type: toxicity, subcellular; details: salmonella enterica subsp. enterica serovar typhimurium, s9, 48 h
[18] = Mutagenicity in Salmonella typhimurium TA100 at 62.5 to 625 uM preincubated for 1 hr with S9 mix followed by addition of molten top agar and measured 48 hrs post dark incubation by Ames test; type: toxicity, subcellular; details: salmonella enterica subsp. enterica serovar typhimurium, s9, 48 h
[19] = Mutagenicity in Salmonella typhimurium TA102 at 62.5 to 625 uM preincubated for 1 hr with S9 mix followed by addition of molten top agar and measured 48 hrs post dark incubation by Ames test; type: toxicity, subcellular; details: salmonella enterica subsp. enterica serovar typhimurium, s9, 48 h
[20] = Electrochemical behavior of the compound assessed as redox potential corrected toward normal hydrogen electrode by cyclic voltammetry

## O=[N+]([O-])c1c(CS(=O)(=O)c2ccccc2)nc2c(Sc3ccc(C(F)(F)F)cc3)cc(Cl)cn12
Leishmania donovani [1]
  IC50: 2100 nM
[2]
  CC50 at 72 h: > 3900 nM
[3]
  selectivity ratio: > 1.5

## COc1ccc(Sc2cc(Cl)cn3c([N+](=O)[O-])c(CS(=O)(=O)c4ccccc4)nc23)cc1
Leishmania donovani [1]
  IC50: 1500 nM
[2]
  CC50 at 72 h: > 62500 nM
[4]
  solubility: Soluble
[3]
  selectivity ratio: > 41.7

## O=[N+]([O-])c1c(CS(=O)(=O)c2ccccc2)nc2c(Sc3ccc(Cl)cc3Cl)cc(Cl)cn12
Leishmania donovani [1]
  IC50: 1700 nM
[2]
  CC50 at 72 h: > 3900 nM
[3]
  selectivity ratio: > 2.2

## C[C@@H]1[C@H](O)[C@@H](C)/C=C/C=C/C=C/C=C/C=C/C=C/C=C/[C@H](O[C@@H]2O[C@H](C)[C@@H](O)[C@H](N)[C@@H]2O)C[C@@H]2O[C@](O)(C[C@@H](O)C[C@@H](O)[C@H](O)CC[C@@H](O)C[C@@H](O)CC(=O)O[C@H]1C)C[C@H](O)[C@H]2C(=O)O [AMPHOTERICIN B]
Leishmania major [5]
  IC50: 600 nM
Leishmania major [6]
  IC50: 200 nM

## CC(C)c1ccc(Sc2cc(Cl)cn3c([N+](=O)[O-])c(CS(=O)(=O)c4ccccc4)nc23)cc1
Leishmania donovani [1]
  IC50: 1600 nM
[2]
  CC50 at 72 h: > 25000 nM
[4]
  solubility: Insoluble
[3]
  selectivity ratio: > 15.6

## O=[N+]([O-])c1c(CS(=O)(=O)c2ccccc2)nc2c(SCc3ccc(Cl)cc3)cc(Cl)cn12
[4]
  solubility: Insoluble

## COc1ccc(CSc2cc(Cl)cn3c([N+](=O)[O-])c(CS(=O)(=O)c4ccccc4)nc23)cc1
[4]
  solubility: Insoluble

## N=C(N)c1ccc(OCCCCCOc2ccc(C(=N)N)cc2)cc1 [PENTAMIDINE]
[3]
  selectivity ratio: 0.4

## Cc1ccc(Sc2cc(Cl)cn3c([N+](=O)[O-])c(CS(=O)(=O)c4ccccc4)nc23)cc1
Leishmania donovani [1]
  IC50: 1400 nM
[2]
  CC50 at 72 h: > 3900 nM
[3]
  selectivity ratio: > 2.2

## O=[N+]([O-])c1c(CS(=O)(=O)c2ccccc2)nc2c(Sc3cccc(F)c3)cc(Cl)cn12
Leishmania donovani [1]
  IC50: 1200 nM
[2]
  CC50 at 72 h: > 3900 nM
[3]
  selectivity ratio: > 2.1

## COc1ccccc1Sc1cc(Cl)cn2c([N+](=O)[O-])c(CS(=O)(=O)c3ccccc3)nc12
Leishmania donovani [1]
  IC50: 2300 nM
[2]
  CC50 at 72 h: > 50000 nM
[3]
  selectivity ratio: > 21.7

## O=[N+]([O-])c1c(CS(=O)(=O)c2ccccc2)nc2c(Sc3ccccc3Cl)cc(Cl)cn12
Leishmania donovani [1]
  IC50: 1400 nM
[2]
  CC50 at 72 h: > 5000 nM
[3]
  selectivity ratio: > 3.6

## COc1cccc(Sc2cc(Cl)cn3c([N+](=O)[O-])c(CS(=O)(=O)c4ccccc4)nc23)c1
Leishmania donovani [1]
  IC50: 2300 nM
[2]
  CC50 at 72 h: > 15600 nM
[4]
  solubility: Insoluble
[3]
  selectivity ratio: > 6.8

## CC1CS(=O)(=O)CCN1/N=C/c1ccc([N+](=O)[O-])o1 (configuration not stated) [NIFURTIMOX]
Trypanosoma cruzi
  IC50: 300 nM

## O=[N+]([O-])c1c(CS(=O)(=O)c2ccccc2)nc2c(Sc3ccccc3)cc(Cl)cn12
Leishmania donovani [1]
  IC50: 1700 nM
[2]
  CC50 at 72 h: > 3900 nM
[3]
  selectivity ratio: > 2.3

## O=C1C(O)=C([C@H]2CC[C@H](c3ccc(Cl)cc3)CC2)C(=O)c2ccccc21 [ATOVAQUONE]
Plasmodium falciparum
  IC50: 1 nM

## O=C(Cn1ccnc1[N+](=O)[O-])NCc1ccccc1 [BENZNIDAZOLE]
Trypanosoma cruzi
  IC50: 1200 nM

## O=[N+]([O-])c1c(CS(=O)(=O)c2ccccc2)nc2c(Sc3cccc(C(F)(F)F)c3)cc(Cl)cn12
Leishmania donovani [1]
  IC50: 1300 nM
[2]
  CC50 at 72 h: > 3900 nM
[3]
  selectivity ratio: > 2.4

## O=C(O)Cc1ccc(Sc2cc(Cl)cn3c([N+](=O)[O-])c(CS(=O)(=O)c4ccccc4)nc23)cc1
Leishmania donovani [1]
  IC50: 65600 nM
[2]
  CC50 at 72 h: > 62500 nM
[4]
  solubility: Soluble
[3]
  selectivity ratio: > 1

## O=[N+]([O-])c1c(CS(=O)(=O)c2ccccc2)nc2c(Sc3ccc(Br)cc3)cc(Cl)cn12
Leishmania donovani [1]
  IC50: 1000 nM
[2]
  CC50 at 72 h: > 62500 nM
[4]
  solubility: Soluble
[3]
  selectivity ratio: > 62.5
Leishmania donovani [7]
  IC50: 3500 nM
Leishmania infantum
  IC50: 9000 nM
Leishmania major [5]
  IC50: 1300 nM
Leishmania major [6]
  IC50: 5000 nM
Trichomonas vaginalis
  IC50: 4600 to 5000 nM
[8]
  IC50: 3800 nM
Trypanosoma cruzi
  IC50: 6200 nM
[9]
  CC50 at 72 h: > 62500 nM
[10]
  solubility: Insoluble

## O=[N+]([O-])c1c(CS(=O)(=O)c2ccccc2)nc2c(Sc3cc(Cl)ccc3Cl)cc(Cl)cn12
Leishmania donovani [1]
  IC50: 1300 nM
[2]
  CC50 at 72 h: > 3900 nM
[3]
  selectivity ratio: > 1.5

## O=[N+]([O-])c1c(CS(=O)(=O)c2ccccc2)nc2c([S+]([O-])c3ccc(Cl)cc3)cc(Cl)cn12 (configuration not stated)
[2]
  CC50 at 72 h: > 12500 nM
Leishmania donovani [7]
  IC50: 1300 nM
Leishmania infantum
  IC50: 1600 nM
[8]
  IC50: 600 nM
[11]
  solubility: Insoluble
[12]
  Activity: Non-Toxic
[13]
  Activity: Non-Toxic
[14]
  Activity: Non-Toxic
[15]
  Activity: Non-Toxic
[16]
  Activity: Non-Toxic
[17]
  Activity: Non-Toxic
[18]
  Activity: Non-Toxic
[19]
  Activity: Non-Toxic
[20]
  Activity: -0.61 V

## O=[N+]([O-])c1c(CS(=O)(=O)c2ccccc2)nc2c(Sc3cccc(Cl)c3)cc(Cl)cn12
Leishmania donovani [1]
  IC50: 700 nM
[2]
  CC50 at 72 h: > 3900 nM
[3]
  selectivity ratio: > 3.6

## Cc1ncc([N+](=O)[O-])n1CCO [METRONIDAZOLE]
Trichomonas vaginalis
  IC50: 4200 nM

## O=[N+]([O-])c1c(CS(=O)(=O)c2ccccc2)nc2c(Sc3ccccc3F)cc(Cl)cn12
Leishmania donovani [1]
  IC50: 1200 nM
[2]
  CC50 at 72 h: > 5000 nM
[3]
  selectivity ratio: > 4.2

## Cc1cccc(Sc2cc(Cl)cn3c([N+](=O)[O-])c(CS(=O)(=O)c4ccccc4)nc23)c1
Leishmania donovani [1]
  IC50: 1400 nM
[2]
  CC50 at 72 h: > 5600 nM
[3]
  selectivity ratio: > 4

## O=[N+]([O-])c1c(CS(=O)(=O)c2ccccc2)nc2c(Sc3ccc(F)cc3)cc(Cl)cn12
Leishmania donovani [1]
  IC50: 1300 nM
[2]
  CC50 at 72 h: > 5000 nM
[3]
  selectivity ratio: > 3.8

## O=[N+]([O-])c1c(CS(=O)(=O)c2ccccc2)nc2c(SCc3ccc(Br)cc3)cc(Cl)cn12
[4]
  solubility: Insoluble

## O=[N+]([O-])c1c(CS(=O)(=O)c2ccccc2)nc2c(SCc3ccccc3)cc(Cl)cn12
[4]
  solubility: Insoluble

## O=[N+]([O-])c1c(CS(=O)(=O)c2ccccc2)nc2c(Sc3ccccc3C(F)(F)F)cc(Cl)cn12
Leishmania donovani [1]
  IC50: 1500 nM
[2]
  CC50 at 72 h: > 4100 nM
[3]
  selectivity ratio: > 2.7

## CSc1ccc(OCc2ncc([N+](=O)[O-])n2C)cc1 [FEXINIDAZOLE]
[2]
  CC50 at 72 h: > 200000 nM
Leishmania donovani [7]
  IC50: > 50000 nM
Trypanosoma cruzi
  IC50: 8900 nM
[9]
  CC50 at 72 h: > 62500 nM

## Cc1ccccc1Sc1cc(Cl)cn2c([N+](=O)[O-])c(CS(=O)(=O)c3ccccc3)nc12
Leishmania donovani [1]
  IC50: 1700 nM
[2]
  CC50 at 72 h: > 3900 nM
[3]
  selectivity ratio: > 1.5

## O=[N+]([O-])c1c(CS(=O)(=O)c2ccccc2)nc2c(Sc3cccc(Cl)c3Cl)cc(Cl)cn12
Leishmania donovani [1]
  IC50: 2000 nM
[2]
  CC50 at 72 h: > 25000 nM
[4]
  solubility: Insoluble
[3]
  selectivity ratio: > 12.5
